Results from the supplement of paper PMC13380429.

Legend:
Conditions in all cases: 72 h
Calu-3 [1] = test: relative viability EC50 (midpoint between 100% and the lowest measured viability); higher = less toxic
U2OS [2] = test: as above
Caco-2 [3] = test: as above
HepG2 [4] = test: as above
Calu-3 [5] = test: drug sensitivity score (DSS) for viability; higher = more toxic; extreme values may be limits of the assay
U2OS [6] = test: as above
Caco-2 [7] = test: as above
HepG2 [8] = test: as above
Calu-3 [9] = test: cell viability relative to DMSO; higher = less toxic
U2OS [10] = test: as above
Caco-2 [11] = test: as above
HepG2 [12] = test: as above
Vero E6 [13] = test: relative viability EC50 (midpoint between 100% and the lowest measured viability); higher = less toxic
Vero E6 [14] = test: drug sensitivity score (DSS) for viability; higher = more toxic; extreme values may be limits of the assay
Vero E6 [15] = test: cell viability relative to DMSO; higher = less toxic

| Structure (SMILES) | relative viability EC50 (Calu-3 [1]) | relative viability EC50 (U2OS [2]) | relative viability EC50 (Caco-2 [3]) | relative viability EC50 (HepG2 [4]) | drug sensitivity score (Calu-3 [5]) | drug sensitivity score (U2OS [6]) | drug sensitivity score (Caco-2 [7]) | drug sensitivity score (HepG2 [8]) | cell viability (Calu-3 [9]; 1 nM) | cell viability (Calu-3 [9]; 10 nM) | cell viability (Calu-3 [9]; 100 nM) | cell viability (Calu-3 [9]; 1000 nM) | cell viability (Calu-3 [9]; 10000 nM) | cell viability (U2OS [10]; 1 nM) | cell viability (U2OS [10]; 10 nM) | cell viability (U2OS [10]; 100 nM) | cell viability (U2OS [10]; 1000 nM) | cell viability (U2OS [10]; 10000 nM) | cell viability (Caco-2 [11]; 1 nM) | cell viability (Caco-2 [11]; 10 nM) | cell viability (Caco-2 [11]; 100 nM) | cell viability (Caco-2 [11]; 1000 nM) | cell viability (Caco-2 [11]; 10000 nM) | cell viability (HepG2 [12]; 1 nM) | cell viability (HepG2 [12]; 10 nM) | cell viability (HepG2 [12]; 100 nM) | cell viability (HepG2 [12]; 1000 nM) | cell viability (HepG2 [12]; 10000 nM) | relative viability EC50 (Vero E6 [13]) | drug sensitivity score (Vero E6 [14]) | cell viability (Vero E6 [15]; 1 nM) | cell viability (Vero E6 [15]; 10 nM) | cell viability (Vero E6 [15]; 100 nM) | cell viability (Vero E6 [15]; 1000 nM) | cell viability (Vero E6 [15]; 10000 nM) |
| --- | --- | --- | --- | --- | --- | --- | --- | --- | --- | --- | --- | --- | --- | --- | --- | --- | --- | --- | --- | --- | --- | --- | --- | --- | --- | --- | --- | --- | --- | --- | --- | --- | --- | --- | --- |
| CCOc1ccccc1C(=O)O [2-ethoxybenzoic-acid] | > 10 µM | > 10 µM | > 10 µM | > 10 µM | 0 | 0 | 0 | 0 | 113% | 99.9% | 97.1% | 99.6% | 108% | 95.8% | 99.6% | 93.7% | 94.8% | 98.7% | 102% | 93.1% | 95.5% | 97.9% | 93.9% | 111% | 107% | 93.5% | 101% | 91.7% |  |  |  |  |  |  |  |
| OCc1ccc(-c2nn(Cc3ccccc3)c3ccccc23)o1 [YC-1] | > 10 µM |  | > 10 µM | 1.5 µM | 0 | 1.5 | 0 | 9.5 | 106% | 93.2% | 109% | 104% | 115% | 104% | 105% | 102% | 101% | 65.6% | 106% | 112% | 105% | 113% | 97.4% | 104% | 112% | 102% | 73.5% | 0.4% | > 10 µM | 0 | 103% | 103% | 104% | 104% | 98.1% |
| O=C(Nc1ccccc1)[C@]12C[C@H]1/C(=N\O)c1ccccc1O2 [PHCCC] | > 10 µM | > 10 µM | > 10 µM |  | 0 | 0 | 0 |  | 102% | 102% | 90.9% | 96.4% | 93% | 97.4% | 99.9% | 95.9% | 101% | 104% | 104% | 99% | 93.4% | 107% | 94.5% |  |  |  |  |  | > 10 µM | 0 | 107% | 91.5% | 102% | 92.8% | 103% |
| CC(=O)Nc1ccccc1 [acetanilide] | > 10 µM | > 10 µM | > 10 µM |  | 0 | 0 | 0 |  | 95% | 94.6% | 103% | 98.2% | 99.8% | 105% | 99% | 103% | 99.1% | 98.9% | 98.1% | 101% | 94.5% | 107% | 94.4% |  |  |  |  |  | > 10 µM | 0 | 109% | 93.7% | 102% | 103% | 104% |
| COCC[n+]1c2c(n(Cc3cnccn3)c1C)C(=O)c1ccccc1C2=O [YM-155] | 0.0051 µM | 0.0091 µM | 0.0039 µM | 0.0587 µM | 39 | 37.2 | 40.1 | 27 | 83.9% | 34.4% | 3% | 0.5% | 0.4% | 100% | 44.3% | 1.5% | -0.2% | -0.1% | 81.5% | 27.8% | 3.8% | 1.7% | 1.7% | 103% | 102% | 21% | 3% | 0.4% |  | 4 | 90.7% | 97.4% | 87.5% | 85.2% | 52% |
| Sc1nc2ccccc2s1 [benzo[d]thiazole-2(3H)-thione] | > 10 µM | > 10 µM | > 10 µM | > 10 µM | 0 | 0 | 0 | 0 | 76.6% | 91.1% | 96.7% | 96.3% | 93.1% | 100% | 103% | 94.8% | 102% | 97.2% | 96.5% | 101% | 97.1% | 103% | 94.8% | 99.8% | 101% | 119% | 101% | 108% |  |  |  |  |  |  |  |
| Cc1c(C)c2c(c(C)c1OC(=O)CCC(=O)OCCO)CC[C@@](C)(CCC[C@H](C)CCC[C@H](C)CCCC(C)C)O2 [tocofersolan] | > 10 µM |  | > 10 µM | > 10 µM | 0 | 1.3 | 0 | 0 | 105% | 101% | 105% | 104% | 95.2% | 102% | 105% | 99% | 98.4% | 72.9% | 96.8% | 105% | 106% | 101% | 90.2% | 98.4% | 99.8% | 95% | 103% | 100% | > 10 µM | 0 | 97.8% | 97.9% | 95.9% | 94.9% | 99.3% |
| CCCOc1ccc2[nH]cc(C3=CCNCC3)c2n1 | > 10 µM | > 10 µM | > 10 µM | > 10 µM | 0 | 0 | 0 | 0 | 94.1% | 84.5% | 96.1% | 96.2% | 93.2% | 103% | 97.9% | 101% | 101% | 99.5% | 95.1% | 95.4% | 95.6% | 94.2% | 100% | 104% | 106% | 99.1% | 97.2% | 96.4% |  |  |  |  |  |  |  |
| Cc1noc(-c2ccc(-c3ccc(CC(=O)O)cc3)cc2)c1NC(=O)O[C@H](C)c1ccccc1 [AM095] | > 10 µM | > 10 µM | > 10 µM | > 10 µM | 0 | 0 | 0 | 0 | 114% | 95.7% | 95.7% | 98.3% | 102% | 94.9% | 95.3% | 99% | 93% | 97.5% | 91.2% | 97.4% | 93.3% | 95.2% | 94.9% | 87.3% | 104% | 99.8% | 101% | 91.6% |  | 3.9 | 95% | 98% | 91.4% | 81.3% | 64.2% |
| N[C@@H](C(=O)N[C@@H]1C(=O)N2C(C(=O)O)=C(Cl)CC[C@H]12)c1ccccc1 [loracarbef] | > 10 µM | > 10 µM | > 10 µM | > 10 µM | 0 | 0 | 0 | 0 | 88.5% | 102% | 96.6% | 102% | 99% | 93.6% | 102% | 95.7% | 100% | 101% | 107% | 104% | 95.9% | 91.5% | 98.2% | 100% | 100% | 96.3% | 92% | 97.6% |  |  |  |  |  |  |  |
| O=C1c2ccccc2S(=O)(=O)N1CCCCN1CCN(c2ncccn2)CC1 [ipsapirone] | > 10 µM |  | > 10 µM | > 10 µM | 0 |  | 0 | 0 | 106% | 93.9% | 94.3% | 99.6% | 102% |  |  |  |  |  | 104% | 90.5% | 90.7% | 98.2% | 97.8% | 96.6% | 102% | 103% | 101% | 103% | > 10 µM | 0 | 97% | 102% | 97.2% | 91.8% | 105% |
| CCn1c(=O)/c(=C2\Sc3ccccc3N2C)s/c1=C\c1cccc[n+]1CC [MKT-077] | 2.64 µM |  | 2.43 µM | 3.23 µM | 5.2 | 3.5 | 3.8 | 2.6 | 96.4% | 99.9% | 101% | 94.8% | 20.8% | 97.8% | 98.4% | 96.2% | 94.3% | 51.4% | 92.5% | 93.7% | 100% | 95% | 44% | 104% | 92.8% | 109% | 100% | 49% | > 10 µM | 0.9 | 100% | 97.1% | 95.3% | 90.8% | 81% |
| Nc1nc(N)c2nc(-c3cccc(O)c3)cnc2n1 | 1.4 µM |  | > 10 µM | 2 µM | 6.6 | 3.2 | 1.6 | 3.9 | 99.9% | 97.5% | 103% | 80% | 34.1% | 95.6% | 99.4% | 99.7% | 95.5% | 51.7% | 93.5% | 105% | 99.1% | 84.5% | 86.1% | 98.1% | 99.7% | 102% | 92.5% | 49.6% | > 10 µM | 0.2 | 103% | 95.5% | 97.7% | 98.4% | 86.7% |
